According to patent US6043283A, “Tyramine compounds and their neuronal effects” (priority 1997, dated 2000):
Entries after “also recorded” stand apart in the source; their conditions may differ. Structures can show the parent of a compound that is named as a salt. Where two headings read alike, the source gives them in different places.

Tests used:
[1] = test system: human microglia stimulated with S5; assay type: cell-based;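 also: drugs applied at 10 µM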
[2] = test system: Aβ1-42-stimulated microglia; assay type: cell-based, rat
Source text: Briefly, hippocampal cells obtained from embryonic stage 18 rat fetuses were dispersed mechanically in the presence of 0.125% trypsin and plated onto poly-L-lysine coated glass coverslips in 24 well plates at 250,000 cells per well (resulting in adhering cell densities of about 1250 cells per mm^2) in chemically-defined N2 culture media containing 5% fetal bovine serum. Gradual reduction of serum began on day 10 in vitro with daily 1:1 volume replacements with chemically-defined media, until a final concentration of 0.6% serum was achieved. […] In order to eliminate microglia, cultures were exposed to saporin (sap; a ribosome-inactivating protein; Davis and Wiley, 1989) coupled to acetylated LDL (ac-LDL) at a concentration of 10 μg/ml for 12 hours. […] Cultures depleted of microglia were then exposed to test substances in the presence or absence of exogenous microglia (100,000 cells per culture). […] Controls included cultures without saporin-treatment, cultures without test substances, and cultures with test substances but lacking microglia.
(§1) On day 14 of culture, immediately following saporin treatment, test substances were added to the hippocampal cultures. Synthetic peptide were supplied as 1 mM stock solutions in 0.1 M phosphate buffered saline, pH 7.2, stored for at least 1 week at 4° C. before use. After 72 hours incubation, the cultures were fixed in 4% paraformaldehyde at room temperature for 18 hours and immuno-stained by overnight incubation with a mixture of anti-neurofilament antibodies (NF; SMI-311, 1:600; Stemberger Monoclonals, Inc.) plus anti-MAP-2 (Boehringer Mannheim, 184959; 1:600) at 4° C. in the presence of 2% horse serum and 0.3% triton X-100 to delineate both neuronal cell bodies and neurites. Astroglia were visualized using sheep anti-glial fibrillary acidic protein (GFAP, Sigma) as described by Giulian et al., 1989. Finally, to label all cell nuclei, the coverslips were exposed to 0.01% bisbenzimide (Hoechst 33258; Sigma) in PBS, pH 6.9, and rinsed in distilled water and mounted in glycerin. Immuno-labeled cells per field and nuclei per field were scored at 200X magnification using fluorescence microscopy. Data were expressed as % mean survival expressed in terms of parallel untreated control cultures after scoring at least 20 randomly selected fields for each of 3 coverslips.

[3] = test system: NTox released by Aβ1-42-stimulated microglia (neuron killing); assay: cells; assay type: cell-based, rat; conditions: for neuroprotective activity (structure/function): Example 14
Source text: . Briefly, hippocampal cells obtained from embryonic stage 18 rat fetuses were dispersed mechanically in the presence of 0.125% trypsin and plated onto poly-L-lysine coated glass coverslips in 24 well plates at 250,000 cells per well (resulting in adhering cell densities of about 1250 cells per mm^2) in chemically-defined N2 culture media containing 5% fetal bovine serum. Gradual reduction of serum began on day 10 in vitro with daily 1:1 volume replacements with chemically-defined media, until a final concentration of 0.6% serum was achieved. […]; see FIG. 18). In order to eliminate microglia, cultures were exposed to saporin (sap; a ribosome-inactivating protein; Davis and Wiley, 1989) coupled to acetylated LDL (ac-LDL) at a concentration of 10 μg/ml for 12 hours. […] Cultures depleted of microglia were then exposed to test substances in the presence or absence of exogenous microglia (100,000 cells per culture). […]. Controls included cultures without saporin-treatment, cultures without test substances, and cultures with test substances but lacking microglia.
as §1
The procedures described above and by Giulian et al, 1996, provided for the identification of tyramine compounds as therapeutic agents for neurodegenerative diseases or disorders including, for example, Alzheimer's disease. Cells from the brain of fetal rats were grown in tissue cultures. Microglial populations within the cultures were controlled following the method described in Example 5 above. Known amounts of Aβ peptides coupled to microspheres were added to the culture. The Aβ spheres stimulated the microglia to release NTox, which in turn destroyed the neurons. The neurons in the cultures were monitored for survival by immuno-staining.
Generally, drug assays involve the addition of known concentrations of a test agent over a range of concentrations. After 72 hours, the experiment is stopped and the neurons are identified by immuno-staining. The data is expressed as % neuronal survival […]. Dose response curves are then used to estimate Effective Dose50 % (ED50) of neuroprotective agents. […].
In this experiment, about 65% of the neurons were destroyed by the Aβ-stimulated microglia. […] Other tyramine compounds, including tyrosine esters, were neuroprotective (FIG. 30).
Following the methods described herein, numerous compounds were examined to determine their neuroprotective activity. […]

NMDA receptor = assay: whole cell current elicited by NMDA in Xenopus oocytes injected with NMDA R1 and R2 subunit cRNAs; assay type: cell-based; conditions: for effect on current elicited by NMDA: FIG. 34
Source text: FIG. 34 is a graph shorting the % maximal current peak elicited by NMDA, octopamine and tyramine compounds in the presence of a given NMDA concentration. […].
The precise mechanism of NTox that leads to the destruction of neurons is only partially characterized. Based upon extensive testing with receptor antagonists, it has been discovered that two classes of neurotransmitter receptors are involved--the n-methyl D-aspartate (NMDA) class of […] receptors and the Muscarinic (M receptors) class of cholinergic receptors. […] […]. Further study to determine if tyramine compounds act upon the NMDA receptor itself involved expression of the NMDA receptor complex in Xenopus oocytes and measurement of ionic fluxes across the oocyte membrane that are elicited by NMDA. […] […]. […] Thus, tyramine compounds appear to have several actions, one of which is upon the NMDA receptor.

NTox = assay: protection of neurons against isolated NTox applied directly; assay type: cell-based; conditions: isolated NTox; FIGS. 13, 32
Source text: FIG. 32 is a graph showing the specificity of tyramine compounds to NTox. […].
Initial studies to characterize the neuroprotective effect of tyramine compounds employed microglia-neuron co-culture assays in the presence of Aβ or isolated senile plaques. Inhibition of neuron killing in […]--inhibition of microglial activation by Aβ or plaques; inhibition of NTox production and release by microglia; or inhibition of action of NTox upon neurons. […] Effective doses in the low nmolar range show the tyramine compounds to be very potent agents compared with low μmolar range of other neuroprotective drugs under development for neurological disorders.

[4] = assay type: physicochemical; conditions: chemically defined culture media, 37° C.; Table 2
Source text: Solubility of peptides is described for chemicallydefined culture media a […]

rat microglia = assay: binding of Aβ-coupled microspheres to microglia; conditions: 4 hours at 37° C. (72 h in FIG. 23)
microglia = assay: inhibition of SpheresAβ1-42 binding to microglia; parameters: species or system rat; conditions: 10 μmoles/l, 4 hours, 37° C.
Method: Spheresmal-BSA (which bind to scavenger receptors) or SpheresAβ1-42 were incubated with microglia for 4 hours following pre-treatment of cells with trypsin (5000 units/ml at 37° C. for 60 min followed by inactivation with soybean trypsin inhibitor), with heparinase (heparin lyase EC 4.2.2.7; two consecutive treatments each of 0.01 units/ml for 60 min), or with chondroitinase ABC (chondroitin ABC lyase EC 4.3.3.4; two consecutive treatments each of 0.02 units/ml for 60 min). […] Microglia mixed with hippocampal neurons were treated with combinations of β-D-xyloside (1 mm), heparinase (0.02 units/ml), or chondroitinase (0.04 units/ml) and then exposed to plaques.
Each well then received 250,000 SpheresAβ1-42 or Spheresmal-BSA in the presence or absence of Aβ peptides, GAGs, or scavenger receptor ligands. Binding assays were carried out at 37° C. for 4 hours after which coverslips were dipped 10 times in phosphate buffer and fixed with 4% buffered paraformaldehyde. Microsphere adherence to cells was scored at 200 magnification with phase/fluorescence microscopy. Data, expressed as % inhibition of sphere binding, was calculated from total number of spheres per field noted for control cultures receiving spheres only. Values are based upon at least 3 coverslips from 2 independent experiments. […] Washed spheres were resuspended in 0.2 M borate buffer (pH 8.5) in the presence of 300 μg Aβ or 400 μg BSA in 6% DMSO. After overnight mixing at room temperature, the spheres were washed extensively and blocked by 1 M glycine (pH 8.0) for 30 minutes.

human microglia = assay: induction of neuron-killing human microglia; assay type: cell-based; conditions: 1 μmole/liter synthetic peptides
[5] = test system: rat microglia / hippocampal neurons; conditions: rat microglia, mostly 1 μmole/l

NC(CCCCCP(=O)(O)O)C(=O)O (centres unmarked) [AP7]
drug blockade of neuron killing, human microglia [1]: blocked neuron death
drug blockade of neuron killing, rat microglia [2]: prevented neuronal loss; also recorded: blocked neuron death

CC(=N)NCCC[C@H](N)C(=O)O [L-NIO, L-N-5-(1-imino-ethyl)-ornithine hydrochloride]
drug blockade of neuron killing, human microglia ([1]; hydrochloride): no reduction of microglia-mediated neuron killing; also recorded: No protective effects were observed
drug blockade of neuron killing, rat microglia ([2]; hydrochloride): no reduction of microglia-mediated neuron killing; also recorded: No protective effects were observed

N[C@@H](CCC(=O)N[C@@H](CS)C(=O)NCC(=O)O)C(=O)O [glutathione]
drug blockade of neuron killing, human microglia [1]: no reduction of microglia-mediated neuron killing; also recorded: did not block microglial killing of neurons
drug blockade of neuron killing, rat microglia [2]: no reduction of microglia-mediated neuron killing; also recorded: did not block microglial killing of neurons

CC(C(O)c1ccc(O)cc1)N1CCC(Cc2ccccc2)CC1 (centres unmarked) [ifenprodil]
drug blockade of neuron killing, human microglia [1]: blocked neuron death
drug blockade of neuron killing, rat microglia [2]: prevented neuronal loss; also recorded: blocked neuron death

NCC(O)c1ccc(O)cc1 (centres unmarked) [octopamine]
neuroprotective activity (structure/function) [3]: little or no neuroprotective activity
effect on current elicited by NMDA (NMDA receptor): does not alter the current measured
effect on current elicited by NMDA (NMDA receptor; listed as Octopamine): no effect

N[C@@H](Cc1ccc(O)cc1)C(=O)OCc1ccccc1 [tyrosine benzyl ester]
neuroprotective activity (structure/function) [3]: enhance neuroprotective effects
effect on current elicited by NMDA (NMDA receptor): inhibition of NMDA

CC(C)(C)OC(=O)[C@@H](N)Cc1ccc(O)cc1 [tyrosine t-butyl ester]
neuroprotective effect ([3]; Aβ1-42-stimulated microglia): most potent neuroprotectant tested
neuroprotective activity (structure/function) [3]: enhance neuroprotective effects
EC50 ([3]; Rattus norvegicus, Aβ-stimulated microglia, 72 h, FIG. 31, read-out: ED50 (neuroprotection)): 2 nM
effect on NMDA-stimulated voltage change across oocyte membrane (NMDA receptor; 300 μM): blocked
effect on current elicited by NMDA (NMDA receptor): inhibition of NMDA
inhibition of killing action of NTox applied to neurons (NTox): killing action of NTox is inhibited

Aβ17-42: Aβ peptide residues 17-42 (LVFFAEDVGSNKGAIIGLMVGGVVIA; Amyloid-beta protein 42; UniProt P05067 688-713, looked up, fragment)
Solubility [4]: very insoluble
binding of peptide-coupled microspheres to microglia (rat microglia): neither binds to microglia nor elicits toxicity

Aβ36-42: Aβ peptide residues 36-42 (VGGVVIA; Amyloid-beta protein 42; UniProt P05067 707-713, looked up, fragment)
binding of peptide-coupled microspheres to microglia (rat microglia): little cell binding
blocking of Aβ1-42 induced microglial neurotoxicity by peptides ([2]; 10 μmoles/liter peptide, 1 μmole/liter Aβ1-42): did not
inhibition of SpheresAβ1-42 binding by peptides (microglia): did not

catalase
drug blockade of neuron killing, human microglia [1]: no reduction of microglia-mediated neuron killing; also recorded: did not block microglial killing of neurons
drug blockade of neuron killing, rat microglia [2]: no reduction of microglia-mediated neuron killing; also recorded: did not block microglial killing of neurons

rodent Aβ1-40: rodent Aβ1-40 (5Arg-Gly, 10Tyr-Phe, 13His-Arg) (DAEFGHDSGFEVRHQKLVFFAEDVGSNKGAIIGLMVGGVV; Amyloid-beta protein 40; UniProt P12023 672-711, looked up)
binding of peptide-coupled microspheres to microglia (rat microglia): little cell binding
induction of neurotoxic human microglia (human microglia): inactive
induction of neurotoxic microglia / neuron killing [5]: did not activate microglia
induction of neurotoxic microglia / neuron killing ([5]; listed as Aβ1-40rodent): neither
induction of neurotoxic microglia / neuron killing ([5]; listed as Rodent Aβ1-40): did not activate microglia
induction of neurotoxic microglia / neuron killing ([5]; listed as rodent form of Aβ1-40): inactive
inhibition of SpheresAβ1-42 binding by peptides (microglia): unable to block

vitamin E
drug blockade of neuron killing, human microglia [1]: no reduction of microglia-mediated neuron killing; also recorded: did not block microglial killing of neurons
drug blockade of neuron killing, rat microglia [2]: no reduction of microglia-mediated neuron killing; also recorded: did not block microglial killing of neurons
